According to PubChem BioAssay (NCI):
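Cells were grown in 96-well plates and exposed to each compound for 48 hours at five concentrations; endpoints were interpolated linearly between bracketing concentrations, or set to the highest concentration if not reached. The concentration for full growth arrest is given as TGI.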

Legend:
Test in all cases: inhibition of tumour cell growth, NCI panel, 48 h
[1] = system: IGROV1 ovarian
[2] = system: PC-3 prostate
[3] = system: A498 renal
[4] = system: DU-145 prostate
[5] = system: OVCAR-5 ovarian
[6] = system: UO-31 renal
[7] = system: MALME-3M melanoma
[8] = system: M14 melanoma
[9] = system: A549 NSCLC
[10] = system: MOLT-4 leukemia
[11] = system: UACC-257 melanoma
[12] = system: HL-60(TB) leukemia
[13] = system: NCI-H522 lung
[14] = system: HOP-92 NSCLC
[15] = system: ACHN renal
[16] = system: MDA-N
[17] = system: EKVX NSCLC
[18] = system: TK-10 renal
[19] = system: HCT-116 colon
[20] = system: OVCAR-4 ovarian
[21] = system: COLO 205 colon
[22] = system: SR leukemia
[23] = system: SW-620 colon
[24] = system: LOX IMVI melanoma
[25] = system: SK-MEL-5 melanoma
[26] = system: SNB-19 CNS
[27] = system: OVCAR-3 ovarian
[28] = system: SF-268 CNS
[29] = system: RPMI-8226 leukemia
[30] = system: KM12 colon
[31] = system: SF-295 CNS
[32] = system: SF-539 CNS
[33] = system: U251 CNS
[34] = system: T-47D breast
[35] = system: HOP-62 NSCLC
[36] = system: RXF 393 renal
[37] = system: SN12C renal
[38] = system: K-562 leukemia
[39] = system: CAKI-1 renal
[40] = system: SK-MEL-28 melanoma
[41] = system: SNB-75 CNS
[42] = system: OVCAR-8 ovarian
[43] = system: CCRF-CEM leukemia
[44] = system: HT29 colon
[45] = system: HCT-15 colon
[46] = system: 786-0 renal
[47] = system: NCI/ADR-RES ovarian
[48] = system: BT-549 breast
[49] = system: HS 578T breast
[50] = system: SK-OV-3 ovarian
[51] = system: SK-MEL-2 melanoma
[52] = system: NCI-H226 lung
[53] = system: MDA-MB-231 breast
[54] = system: NCI-H460 lung
[55] = system: MDA-MB-435
[56] = system: NCI-H23 lung
[57] = system: HCC-2998 colon
[58] = system: UACC-62 melanoma
[59] = system: MCF7 breast

## Cc1ccc(OCC2=NC3S/C(=C/c4ccc([N+](=O)[O-])o4)C(=O)N3N2)cc1 (stereo unspecified)
[1]
  TGI: 22.5 µM
[2]
  TGI: 18.2 µM
[3]
  TGI: 37.8 µM
[4]
  TGI: 20.5 µM
[5]
  TGI: 35.2 µM
[6]
  TGI: 34.8 µM
[7]
  TGI: 7.94 µM
[8]
  TGI: 23.6 µM
[9]
  TGI: 38.9 µM
[10]
  TGI: 6.94 µM
[11]
  TGI: 25.5 µM
[12]
  TGI: 5.34 µM
[13]
  TGI: 4.37 µM
[14]
  TGI: 8.8 µM
[15]
  TGI: 3.14 µM
[16]
  TGI: 20.7 µM
[17]
  TGI: 24.5 µM
[18]
  TGI: 30.1 µM
[19]
  TGI: 15.9 µM
[20]
  TGI: 7.86 µM
[21]
  TGI: 11.6 µM
[22]
  TGI: 11.4 µM
[23]
  TGI: 15 µM
[24]
  TGI: 13.3 µM
[25]
  TGI: 21.3 µM
[26]
  TGI: 32.2 µM
[27]
  TGI: 4.12 µM
[28]
  TGI: 14.9 µM
[29]
  TGI: 6.16 µM
[30]
  TGI: 32 µM
[31]
  TGI: 30.4 µM
[32]
  TGI: 4.3 µM
[33]
  TGI: 29.5 µM
[34]
  TGI: 5.39 µM
[35]
  TGI: 33.7 µM
[36]
  TGI: 28.5 µM
[37]
  TGI: 37 µM
[38]
  TGI: 3.98 µM
[39]
  TGI: 32 µM
[40]
  TGI: 30.5 µM
[41]
  TGI: 30 µM
[42]
  TGI: 14.3 µM
[43]
  TGI: 35.3 µM
[44]
  TGI: 22.6 µM
[45]
  TGI: 7.04 µM
[46]
  TGI: 23.7 µM
[47]
  TGI: 33.2 µM
[48]
  TGI: 25.1 µM
[49]
  TGI: 89 µM
[50]
  TGI: 29.9 µM
[51]
  TGI: 31.7 µM
[52]
  TGI: 33.3 µM
[53]
  TGI: 26.6 µM
[54]
  TGI: 41.6 µM
[55]
  TGI: 19.8 µM
[56]
  TGI: 28.8 µM

## O=c1ccc(=O)n(-c2ccccc2)[nH]1
[1]
  TGI: > 100 µM
[2]
  TGI: > 100 µM
[3]
  TGI: > 100 µM
[4]
  TGI: > 100 µM
[5]
  TGI: > 100 µM
[6]
  TGI: > 100 µM
[7]
  TGI: > 100 µM
[8]
  TGI: > 100 µM
[9]
  TGI: > 100 µM
[10]
  TGI: > 100 µM
[11]
  TGI: > 100 µM
[12]
  TGI: > 100 µM
[13]
  TGI: > 100 µM
[14]
  TGI: > 100 µM
[15]
  TGI: > 100 µM
[57]
  TGI: > 100 µM
[16]
  TGI: > 100 µM
[17]
  TGI: > 100 µM
[18]
  TGI: > 100 µM
[19]
  TGI: > 100 µM
[20]
  TGI: > 100 µM
[21]
  TGI: > 100 µM
[23]
  TGI: > 100 µM
[24]
  TGI: > 100 µM
[25]
  TGI: > 100 µM
[26]
  TGI: > 100 µM
[27]
  TGI: > 100 µM
[28]
  TGI: > 100 µM
[29]
  TGI: > 100 µM
[58]
  TGI: > 100 µM
[30]
  TGI: > 100 µM
[31]
  TGI: > 100 µM
[32]
  TGI: > 100 µM
[33]
  TGI: > 100 µM
[34]
  TGI: > 100 µM
[35]
  TGI: > 100 µM
[36]
  TGI: > 100 µM
[37]
  TGI: > 100 µM
[38]
  TGI: > 100 µM
[39]
  TGI: > 100 µM
[40]
  TGI: > 100 µM
[41]
  TGI: > 100 µM
[42]
  TGI: > 100 µM
[59]
  TGI: > 100 µM
[43]
  TGI: > 100 µM
[44]
  TGI: > 100 µM
[45]
  TGI: > 100 µM
[46]
  TGI: > 100 µM
[47]
  TGI: > 100 µM
[48]
  TGI: > 100 µM
[49]
  TGI: > 100 µM
[50]
  TGI: > 100 µM
[51]
  TGI: > 100 µM
[52]
  TGI: > 100 µM
[53]
  TGI: > 100 µM
[54]
  TGI: > 100 µM
[55]
  TGI: > 100 µM
[56]
  TGI: > 100 µM

## CC(C)CCC[C@@H](C)C1CCC2[C@@H]3CCC4C[C@@H](NS(C)(=O)=O)CC[C@]4(C)C3CC[C@@]21C (stereo partly specified)
[1]
  TGI: > 100 µM
[2]
  TGI: > 100 µM
[4]
  TGI: > 100 µM
[6]
  TGI: > 100 µM
[7]
  TGI: > 100 µM
[8]
  TGI: > 100 µM
[9]
  TGI: > 100 µM
[10]
  TGI: > 100 µM
[11]
  TGI: > 100 µM
[12]
  TGI: > 100 µM
[13]
  TGI: > 100 µM
[16]
  TGI: > 100 µM
[17]
  TGI: > 100 µM
[18]
  TGI: > 100 µM
[19]
  TGI: > 100 µM
[20]
  TGI: > 100 µM
[21]
  TGI: > 100 µM
[22]
  TGI: > 100 µM
[23]
  TGI: > 100 µM
[24]
  TGI: > 100 µM
[25]
  TGI: > 100 µM
[26]
  TGI: > 100 µM
[27]
  TGI: > 100 µM
[28]
  TGI: > 100 µM
[29]
  TGI: > 100 µM
[58]
  TGI: > 100 µM
[30]
  TGI: > 100 µM
[31]
  TGI: > 100 µM
[32]
  TGI: > 100 µM
[33]
  TGI: > 100 µM
[34]
  TGI: > 100 µM
[35]
  TGI: > 100 µM
[36]
  TGI: > 100 µM
[37]
  TGI: > 100 µM
[38]
  TGI: > 100 µM
[39]
  TGI: > 100 µM
[40]
  TGI: > 100 µM
[41]
  TGI: > 100 µM
[42]
  TGI: > 100 µM
[59]
  TGI: > 100 µM
[43]
  TGI: > 100 µM
[44]
  TGI: > 100 µM
[45]
  TGI: > 100 µM
[46]
  TGI: > 100 µM
[47]
  TGI: > 100 µM
[48]
  TGI: > 100 µM
[49]
  TGI: > 100 µM
[50]
  TGI: > 100 µM
[51]
  TGI: > 100 µM
[52]
  TGI: > 100 µM
[53]
  TGI: > 100 µM
[54]
  TGI: > 100 µM
[55]
  TGI: > 100 µM
[56]
  TGI: > 100 µM

## O=c1cc(NNc2ccccc2F)[nH]c(=O)[nH]1
[1]
  TGI: 30.4 µM
[2]
  TGI: 32.9 µM
[3]
  TGI: > 100 µM
[4]
  TGI: > 100 µM
[5]
  TGI: 38.7 µM
[6]
  TGI: 24.6 µM
[7]
  TGI: 33.3 µM
[8]
  TGI: 31.5 µM
[9]
  TGI: > 100 µM
[10]
  TGI: 54 µM
[11]
  TGI: 32 µM
[12]
  TGI: 34.3 µM
[13]
  TGI: 31.5 µM
[14]
  TGI: 29.2 µM
[15]
  TGI: 32.3 µM
[57]
  TGI: 34.9 µM
[16]
  TGI: 32.5 µM
[18]
  TGI: 27.5 µM
[19]
  TGI: 30.6 µM
[20]
  TGI: 31.5 µM
[21]
  TGI: 33.8 µM
[22]
  TGI: 7.37 µM
[23]
  TGI: 31.9 µM
[24]
  TGI: 29.7 µM
[25]
  TGI: 49.5 µM
[26]
  TGI: > 100 µM
[27]
  TGI: 31.6 µM
[28]
  TGI: 35.2 µM
[29]
  TGI: 46.2 µM
[58]
  TGI: 30.9 µM
[30]
  TGI: 28.7 µM
[32]
  TGI: 30.7 µM
[33]
  TGI: 31.9 µM
[34]
  TGI: 18 µM
[36]
  TGI: 3.29 µM
[38]
  TGI: 57.6 µM
[39]
  TGI: 25.7 µM
[40]
  TGI: 35.1 µM
[41]
  TGI: 72.5 µM
[59]
  TGI: 21.2 µM
[43]
  TGI: 47.6 µM
[44]
  TGI: 34.9 µM
[45]
  TGI: 29.6 µM
[46]
  TGI: 28.7 µM
[47]
  TGI: 31.4 µM
[48]
  TGI: 31.8 µM
[49]
  TGI: 63.4 µM
[50]
  TGI: 60.8 µM
[51]
  TGI: 30.8 µM
[52]
  TGI: 42.8 µM
[53]
  TGI: 29.9 µM
[54]
  TGI: 2.3 µM
[56]
  TGI: 31.6 µM
